Test results: ChEMBL document CHEMBL1201862, “PubChem BioAssay data set” (2004)
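Exposure lasted 48 hours, with cells grown in 96-well plates and compounds tested at five concentrations. GI50 is the concentration that inhibits growth by half.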 The source made the active and inactive calls. Cut-off read from the data, not from the text of the source: active = GI50 up to about 1.1 µM and inactive = higher.

Experiments:
Assay in all cases: NCI anticancer screen, dose series, 48 h
SK-OV-3 = tested on: SK-OV-3
SW-620 = tested on: SW-620
UACC-257 = tested on: UACC-257
HL-60 = tested on: HL-60
NCI/ADR-RES = tested on: NCI/ADR-RES
MDA-N = tested on: MDA-N
ACHN = tested on: ACHN
BT-549 = tested on: BT-549
NCI-H460 = tested on: NCI-H460
NCI-H23 = tested on: NCI-H23
UACC-62 = tested on: UACC-62
OVCAR-3 = tested on: OVCAR-3
NCI-H522 = tested on: NCI-H522
786-0 = tested on: 786-0
RPMI-8226 = tested on: RPMI-8226
CCRF-CEM = tested on: CCRF-CEM
MOLT-4 = tested on: MOLT-4
SK-MEL-2 = tested on: SK-MEL-2
MDA-MB-231 = tested on: MDA-MB-231
SK-MEL-5 = tested on: SK-MEL-5
OVCAR-4 = tested on: OVCAR-4
HT-29 = tested on: HT-29
U-251 = tested on: U-251
UO-31 = tested on: UO-31
IGROV-1 = tested on: IGROV-1
TK-10 = tested on: TK-10
RXF 393 = tested on: RXF 393
DU-145 = tested on: DU-145
SNB-19 = tested on: SNB-19
HOP-62 = tested on: HOP-62
Malme-3M = tested on: Malme-3M
LOX IMVI = tested on: LOX IMVI
HCT-116 = tested on: HCT-116
SF-295 = tested on: SF-295
CAKI-1 = tested on: CAKI-1
A498 = tested on: A498
KM12 = tested on: KM12
T47D = tested on: T47D
OVCAR-8 = tested on: OVCAR-8
COLO 205 = tested on: COLO 205
MDA-MB-435 = tested on: MDA-MB-435
MCF7 = tested on: MCF7
HOP-92 = tested on: HOP-92
M14 = tested on: M14
SN12C = tested on: SN12C
HCT-15 = tested on: HCT-15
SNB-75 = tested on: SNB-75
K562 = tested on: K562
SF-539 = tested on: SF-539
PC-3 = tested on: PC-3
SK-MEL-28 = tested on: SK-MEL-28
EKVX = tested on: EKVX
NCI-H226 = tested on: NCI-H226
HCC 2998 = tested on: HCC 2998
OVCAR-5 = tested on: OVCAR-5
A549 = tested on: A549
SR = tested on: SR
SF-268 = tested on: SF-268

SMILES: CC(=O)Nc1ccc(N2C(=O)/C(=C\c3cccc(Oc4ccccc4)c3)S(=O)(=O)C2c2ccccc2)cc1 (stereo not drawn)
- GI50 (SK-OV-3): > 100 µM (inactive)
- GI50 (SW-620): 33.3 µM (inactive)
- GI50 (UACC-257): > 100 µM (inactive)
- GI50 (HL-60): 30.3 µM (inactive)
- GI50 (NCI/ADR-RES): 37.2 µM (inactive)
- GI50 (MDA-N): 27.2 µM (inactive)
- GI50 (ACHN): 74.1 µM (inactive)
- GI50 (BT-549): > 100 µM (inactive)
- GI50 (NCI-H460): > 100 µM (inactive)
- GI50 (NCI-H23): > 100 µM (inactive)
- GI50 (UACC-62): 83.2 µM (inactive)
- GI50 (OVCAR-3): 49.4 µM (inactive)
- GI50 (NCI-H522): 71.8 µM (inactive)
- GI50 (786-0): > 100 µM (inactive)
- GI50 (RPMI-8226): 20.4 µM (inactive)
- GI50 (CCRF-CEM): 27.7 µM (inactive)
- GI50 (MOLT-4): 28.2 µM (inactive)
- GI50 (SK-MEL-2): > 100 µM (inactive)
- GI50 (MDA-MB-231): > 100 µM (inactive)
- GI50 (SK-MEL-5): 57.5 µM (inactive)
- GI50 (OVCAR-4): 37.8 µM (inactive)
- GI50 (HT-29): 41.5 µM (inactive)
- GI50 (U-251): 39.3 µM (inactive)
- GI50 (UO-31): 29.7 µM (inactive)
- GI50 (IGROV-1): 51.2 µM (inactive)
- GI50 (TK-10): > 100 µM (inactive)
- GI50 (RXF 393): > 100 µM (inactive)
- GI50 (DU-145): 39.1 µM (inactive)
- GI50 (SNB-19): 90.2 µM (inactive)
- GI50 (HOP-62): > 100 µM (inactive)
- GI50 (Malme-3M): > 100 µM (inactive)
- GI50 (LOX IMVI): 41 µM (inactive)
- GI50 (HCT-116): 37.5 µM (inactive)
- GI50 (SF-295): 89.5 µM (inactive)
- GI50 (CAKI-1): > 100 µM (inactive)
- GI50 (A498): > 100 µM (inactive)
- GI50 (KM12): > 100 µM (inactive)
- GI50 (T47D): 35.9 µM (inactive)
- GI50 (OVCAR-8): 35.7 µM (inactive)
- GI50 (COLO 205): > 100 µM (inactive)
- GI50 (MDA-MB-435): 60.8 µM (inactive)
- GI50 (MCF7): 32.2 µM (inactive)
- GI50 (HOP-92): 55.2 µM (inactive)
- GI50 (M14): 67 µM (inactive)
- GI50 (SN12C): 46.5 µM (inactive)
- GI50 (HCT-15): > 100 µM
- GI50 (SNB-75): 81.3 µM (inactive)
- GI50 (K562): 37.3 µM (inactive)
- GI50 (SF-539): 24.3 µM (inactive)
- GI50 (PC-3): 61.1 µM (inactive)
- GI50 (SK-MEL-28): 91 µM (inactive)
- GI50 (EKVX): > 100 µM (inactive)
- GI50 (NCI-H226): 66.2 µM (inactive)
- GI50 (HCC 2998): > 100 µM (inactive)
- GI50 (OVCAR-5): > 100 µM (inactive)
- GI50 (A549): > 100 µM (inactive)
- GI50 (SR): 31.4 µM (inactive)

SMILES: CN1CCCOC(c2ccc(Cl)cc2)O1 (stereo not drawn)
- GI50 (SK-OV-3): > 100 µM (inactive)
- GI50 (SW-620): > 100 µM (inactive)
- GI50 (UACC-257): > 100 µM (inactive)
- GI50 (NCI/ADR-RES): > 100 µM (inactive)
- GI50 (MDA-N): > 100 µM (inactive)
- GI50 (ACHN): > 100 µM (inactive)
- GI50 (BT-549): > 100 µM (inactive)
- GI50 (NCI-H460): > 100 µM (inactive)
- GI50 (NCI-H23): > 100 µM (inactive)
- GI50 (UACC-62): > 100 µM (inactive)
- GI50 (OVCAR-3): > 100 µM (inactive)
- GI50 (NCI-H522): > 100 µM (inactive)
- GI50 (786-0): > 100 µM (inactive)
- GI50 (CCRF-CEM): > 100 µM (inactive)
- GI50 (MOLT-4): > 100 µM (inactive)
- GI50 (SK-MEL-2): > 100 µM (inactive)
- GI50 (MDA-MB-231): > 100 µM (inactive)
- GI50 (SK-MEL-5): > 100 µM (inactive)
- GI50 (OVCAR-4): > 100 µM (inactive)
- GI50 (HT-29): > 100 µM (inactive)
- GI50 (U-251): > 100 µM (inactive)
- GI50 (UO-31): > 100 µM (inactive)
- GI50 (IGROV-1): > 100 µM (inactive)
- GI50 (TK-10): > 100 µM (inactive)
- GI50 (RXF 393): > 100 µM (inactive)
- GI50 (DU-145): > 100 µM (inactive)
- GI50 (SNB-19): > 100 µM (inactive)
- GI50 (HOP-62): > 100 µM (inactive)
- GI50 (Malme-3M): > 100 µM (inactive)
- GI50 (LOX IMVI): > 100 µM (inactive)
- GI50 (HCT-116): > 100 µM (inactive)
- GI50 (SF-295): > 100 µM (inactive)
- GI50 (CAKI-1): > 100 µM (inactive)
- GI50 (A498): > 100 µM (inactive)
- GI50 (KM12): > 100 µM (inactive)
- GI50 (T47D): > 100 µM (inactive)
- GI50 (OVCAR-8): > 100 µM (inactive)
- GI50 (COLO 205): > 100 µM (inactive)
- GI50 (MDA-MB-435): > 100 µM (inactive)
- GI50 (MCF7): > 100 µM (inactive)
- GI50 (HOP-92): 65 µM (inactive)
- GI50 (M14): > 100 µM (inactive)
- GI50 (SN12C): > 100 µM (inactive)
- GI50 (HCT-15): > 100 µM
- GI50 (SNB-75): > 100 µM (inactive)
- GI50 (K562): > 100 µM (inactive)
- GI50 (SF-539): > 100 µM (inactive)
- GI50 (PC-3): > 100 µM (inactive)
- GI50 (SK-MEL-28): > 100 µM (inactive)
- GI50 (EKVX): > 100 µM (inactive)
- GI50 (SF-268): > 100 µM (inactive)
- GI50 (NCI-H226): > 100 µM (inactive)
- GI50 (HCC 2998): > 100 µM (inactive)
- GI50 (OVCAR-5): > 100 µM (inactive)
- GI50 (A549): > 100 µM (inactive)
- GI50 (SR): > 100 µM (inactive)
